This note sets out measurements from patent US20050282810A1, “Oxindole derivatives” (priority 2000, published 2005).

Where only a bound is given, the exact number is not on record here.

A word on the IC50: it is the concentration that gives 50% inhibition. High values mean lower potency, low ones higher potency. Usually melting point stands for the temperature of the solid-liquid transition.

In the first series the target is T1, TrkA (Homo sapiens, UniProt P04629).
T1 construct: The enzyme is a GST-fusion of the intracellular domain expressed in SF9 cells; GST; host or cells: SF9 insect cells
T1 sequence (P04629 440-796 limits assumed, species assumed): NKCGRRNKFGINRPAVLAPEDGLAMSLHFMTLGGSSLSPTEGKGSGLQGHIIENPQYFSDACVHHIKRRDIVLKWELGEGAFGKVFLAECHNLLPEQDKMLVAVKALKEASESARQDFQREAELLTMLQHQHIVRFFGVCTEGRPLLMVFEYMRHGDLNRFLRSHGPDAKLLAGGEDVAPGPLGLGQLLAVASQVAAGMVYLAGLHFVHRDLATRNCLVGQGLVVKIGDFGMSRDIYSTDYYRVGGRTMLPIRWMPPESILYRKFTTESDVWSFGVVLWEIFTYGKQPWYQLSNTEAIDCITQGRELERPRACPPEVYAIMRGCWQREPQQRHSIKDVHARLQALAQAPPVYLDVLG
Kind of series: TrkA tyrosine kinase substrate phosphorylation assay (Src peptide, 33P-ATP, p81 filter plates). Format: biochemical. Conditions: GST-fusion of TrkA intracellular domain, 30 uM ATP, 50 uM Src peptide, RT 120 min. How it is done: The compounds of the present invention have valuable pharmacologic properties. Different compounds from this class are particularly effective at inhibiting the trkA kinase enzyme at concentrations that range from 0.0001 to 1 μM and additionally show specificity relative to other kinases. Substrate phosphorylation assays were carried out as follows:
Screening format: Tyrosine kinase activity is being measured using a synthetic peptide substrate. The enzyme is a GST-fusion of the intracellular domain expressed in SF9 cells. The enzyme is expressed and purified by Regeneron. The enzyme is preincubated with cold ATP and Mg to allow autophosphorylation prior to running the screen. This increases the initial rate of catalysis approximately 3 fold. The assay is performed in 96 well microtitre plates, and reaction products are detected following filtration through millipore p81 phosphocellulose plates.
Consider `O=C1Nc2ccccc2/C1=C/Nc1ccc2[nH]c(=O)[nH]c2c1` [Example 1, 5-{[(Z)-(2-oxo-1,2-dihydro-3H-indol-3-ylidene)methyl]amino}-1,3-dihydro-2H-benzimidazol-2-one], for which the IC50 is under 10 nM. The same measure, in the same setting: under `O=C1Nc2ccccc2/C1=C/Nc1ccc(-n2cncn2)cc1` [Example 2, (3Z)-3-{[4-(1H-1,2,4-triazol-1-yl)anilino]-methylene}-1,3-dihydro-2H-indol-2-one] stands under 10 nM; under `CCC1(c2ccc(N/C=C3\C(=O)Nc4ccccc43)cc2)CCC(=O)NC1=O` (stereo not shown) [Example 3, 3-ethyl-3-(4-{[(Z)-(2-oxo-1,2-dihydro-3H-indol-3-ylidene)methyl]amino}phenyl)-2,6-piperidinedione], under 10 nM. In the case of `Nc1nnc(-c2cccc(N/C=C3\C(=O)Nc4ccc5[nH]nnc5c43)c2)o1` [Example 4, (8Z)-8-{[3-(5-amino-1,3,4-oxadiazol-2-yl)anilino]methylene}-6,8-dihydro[1,2,3]triazolo[4,5-e]indol-7(3H)-one], the IC50 is under 10 nM. In the case of `NC(=O)Cc1ccc(N/C=C2\C(=O)Nc3ccccc32)cc1` [Example 5, 2-(4-{[(Z)-(2-oxo-1,2-dihydro-3H-indol-3-ylidene)methyl]amino}phenyl)acetamide], the IC50 lay within 10 to 100 nM. The same measure, in the same setting: for `O=C1Nc2ccccc2/C1=C/Nc1ccc(-c2nc[nH]n2)cc1` [Example 6, (3Z)-3-{[4-(1H-1,2,4-triazol-3-yl)anilino]methylene}-1,3-dihydro-2H-indol-2-one] the value was 10 to 100 nM.

Tested on in a further series: not given
Assay: not given
Conditions: not given
With `NC(=O)Cc1ccc(N/C=C2\C(=O)Nc3ccccc32)cc1` [Example 5, 2-(4-{[(Z)-(2-oxo-1,2-dihydro-3H-indol-3-ylidene)methyl]amino}phenyl)acetamide], the melting point was over 250 °C.
